PubChem BioAssay (NCI)
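Growth conditions: 96-well plates. Treatment: test compound, 48 hours, 5 concentrations. Analysis: linear interpolation between bracketing concentrations; unreached endpoints set to highest concentration. GI50 is the concentration that inhibits growth by half. TGI denotes the concentration required for complete inhibition of growth.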

Key:
Assay in all cases: NCI tumour cell line growth inhibition, 48 h
SK-MEL-5 melanoma = tested on: SK-MEL-5 melanoma
HS 578T breast = tested on: HS 578T breast
BT-549 breast = tested on: BT-549 breast
NCI-H23 lung = tested on: NCI-H23 lung
MDA-MB-231 breast = tested on: MDA-MB-231 breast
T-47D breast = tested on: T-47D breast
NCI/ADR-RES ovarian = tested on: NCI/ADR-RES ovarian
UACC-257 melanoma = tested on: UACC-257 melanoma
OVCAR-4 ovarian = tested on: OVCAR-4 ovarian
CAKI-1 renal = tested on: CAKI-1 renal
K-562 leukemia = tested on: K-562 leukemia
NCI-H522 lung = tested on: NCI-H522 lung
UO-31 renal = tested on: UO-31 renal
HCT-15 colon = tested on: HCT-15 colon
DU-145 prostate = tested on: DU-145 prostate
SF-539 CNS = tested on: SF-539 CNS
NCI-H226 lung = tested on: NCI-H226 lung
MALME-3M melanoma = tested on: MALME-3M melanoma
IGROV1 ovarian = tested on: IGROV1 ovarian
A549 NSCLC = tested on: A549 NSCLC
HT29 colon = tested on: HT29 colon
SF-268 CNS = tested on: SF-268 CNS
ACHN renal = tested on: ACHN renal
OVCAR-3 ovarian = tested on: OVCAR-3 ovarian
CCRF-CEM leukemia = tested on: CCRF-CEM leukemia
KM12 colon = tested on: KM12 colon
SNB-75 CNS = tested on: SNB-75 CNS
NCI-H460 lung = tested on: NCI-H460 lung
SK-MEL-2 melanoma = tested on: SK-MEL-2 melanoma
RXF 393 renal = tested on: RXF 393 renal
RPMI-8226 leukemia = tested on: RPMI-8226 leukemia
M14 melanoma = tested on: M14 melanoma
HOP-92 NSCLC = tested on: HOP-92 NSCLC
HOP-62 NSCLC = tested on: HOP-62 NSCLC
SF-295 CNS = tested on: SF-295 CNS
OVCAR-5 ovarian = tested on: OVCAR-5 ovarian
UACC-62 melanoma = tested on: UACC-62 melanoma
HL-60(TB) leukemia = tested on: HL-60(TB) leukemia
MDA-MB-435 = tested on: MDA-MB-435
PC-3 prostate = tested on: PC-3 prostate
SW-620 colon = tested on: SW-620 colon
SK-OV-3 ovarian = tested on: SK-OV-3 ovarian
EKVX NSCLC = tested on: EKVX NSCLC
COLO 205 colon = tested on: COLO 205 colon
SK-MEL-28 melanoma = tested on: SK-MEL-28 melanoma

N=C(N)c1ccc(-c2ccc(-c3ccc(F)cc3)s2)nc1
GI50 (SK-MEL-5 melanoma): 1800 nM
TGI (SK-MEL-5 melanoma): 3.24 µM
GI50 (HS 578T breast): 2720 nM
TGI (HS 578T breast): 8.89 µM
GI50 (BT-549 breast): 5.11 µM
TGI (BT-549 breast): 30.1 µM
GI50 (NCI-H23 lung): 2870 nM
TGI (NCI-H23 lung): 8.99 µM
GI50 (MDA-MB-231 breast): 1730 nM
TGI (MDA-MB-231 breast): 3.26 µM
GI50 (T-47D breast): 2180 nM
TGI (T-47D breast): 6.68 µM
GI50 (NCI/ADR-RES ovarian): 2720 nM
TGI (NCI/ADR-RES ovarian): 6.86 µM
GI50 (UACC-257 melanoma): 2200 nM
TGI (UACC-257 melanoma): 5.12 µM
GI50 (OVCAR-4 ovarian): 1870 nM
TGI (OVCAR-4 ovarian): 3.67 µM
GI50 (CAKI-1 renal): 1670 nM
TGI (CAKI-1 renal): 3.06 µM
GI50 (K-562 leukemia): 374 nM
TGI (K-562 leukemia): 1750 nM
GI50 (NCI-H522 lung): 2050 nM
TGI (NCI-H522 lung): 4.63 µM
GI50 (UO-31 renal): 1530 nM
TGI (UO-31 renal): 2870 nM
GI50 (HCT-15 colon): 1840 nM
TGI (HCT-15 colon): 3.56 µM
GI50 (DU-145 prostate): 1830 nM
TGI (DU-145 prostate): 3.27 µM
GI50 (SF-539 CNS): 1750 nM
TGI (SF-539 CNS): 3.2 µM
GI50 (NCI-H226 lung): 10.3 µM
TGI (NCI-H226 lung): 32.9 µM
GI50 (MALME-3M melanoma): 1710 nM
TGI (MALME-3M melanoma): 3.21 µM
GI50 (IGROV1 ovarian): 1780 nM
TGI (IGROV1 ovarian): 3.61 µM
GI50 (A549 NSCLC): 2110 nM
TGI (A549 NSCLC): 4.78 µM
GI50 (HT29 colon): 2130 nM
TGI (HT29 colon): 5.52 µM
GI50 (SF-268 CNS): 2510 nM
TGI (SF-268 CNS): 6.98 µM
GI50 (ACHN renal): 1810 nM
TGI (ACHN renal): 3.2 µM
GI50 (OVCAR-3 ovarian): 1770 nM
TGI (OVCAR-3 ovarian): 3.26 µM
GI50 (CCRF-CEM leukemia): 2460 nM
TGI (CCRF-CEM leukemia): 6.06 µM
GI50 (KM12 colon): 1920 nM
TGI (KM12 colon): 3.57 µM
GI50 (SNB-75 CNS): 1550 nM
TGI (SNB-75 CNS): 4.05 µM
GI50 (NCI-H460 lung): 1880 nM
TGI (NCI-H460 lung): 3.68 µM
GI50 (SK-MEL-2 melanoma): 3.23 µM
TGI (SK-MEL-2 melanoma): 9.95 µM
GI50 (RXF 393 renal): 3.84 µM
TGI (RXF 393 renal): 16.9 µM
GI50 (RPMI-8226 leukemia): 2680 nM
TGI (RPMI-8226 leukemia): 6.83 µM
GI50 (M14 melanoma): 1790 nM
TGI (M14 melanoma): 3.69 µM
GI50 (HOP-92 NSCLC): 2020 nM
TGI (HOP-92 NSCLC): 8.58 µM
GI50 (HOP-62 NSCLC): 2390 nM
TGI (HOP-62 NSCLC): 6.21 µM
GI50 (SF-295 CNS): 1850 nM
TGI (SF-295 CNS): 3.63 µM
GI50 (OVCAR-5 ovarian): 1730 nM
TGI (OVCAR-5 ovarian): 3.3 µM
GI50 (UACC-62 melanoma): 1940 nM
TGI (UACC-62 melanoma): 4.24 µM
GI50 (HL-60(TB) leukemia): 1460 nM
TGI (HL-60(TB) leukemia): 3.38 µM
GI50 (MDA-MB-435): 1710 nM
TGI (MDA-MB-435): 3.17 µM
GI50 (PC-3 prostate): 2230 nM
TGI (PC-3 prostate): 6.04 µM
GI50 (SW-620 colon): 1840 nM
TGI (SW-620 colon): 3.65 µM
GI50 (SK-OV-3 ovarian): 11 µM
TGI (SK-OV-3 ovarian): 28.9 µM
GI50 (EKVX NSCLC): 4.26 µM
TGI (EKVX NSCLC): 22.9 µM
GI50 (COLO 205 colon): 2120 nM
TGI (COLO 205 colon): 4.76 µM
GI50 (SK-MEL-28 melanoma): 2130 nM
TGI (SK-MEL-28 melanoma): 4.45 µM
